Square brackets hold non-standard residues; d marks the D form. Peptide text beside a SMILES is read from it.
System: SARS-CoV-2
Experiment: microbe, parasite or virus in culture
Details: Severe acute respiratory syndrome coronavirus 2, Vero C1008, 48 h

SMILES | IC50 [µM] | IC50 (read-out: pIC50 (converted)) [µM]
CSCC[C@H](N)C(=O)N[C@@]1(C(=O)O)CS(=O)(=O)[C@H]2[C@H](C(=O)O)[C@H]21 [POMAGLUMETAD METHIONIL ANHYDROUS] | > 20 | > 20
[2H]c1c([2H])c(-c2ccc(F)cc2F)c([2H])c(C(=O)O)c1O | > 20 | > 20
COc1ccc([C@@H]2CC(=O)c3c(O)cc(O)cc3O2)cc1O [HESPERETIN] | > 20 | > 20
CC1CC(OC(=O)c2ccccc2)CC(C)(C)N1 (configuration not stated) | > 20 | > 20
CC1CCC(C(C)C)C(=O)C1 (configuration not stated) | > 20 | > 20
COP(=O)(OC)C(O)C(Cl)(Cl)Cl (configuration not stated) [TRICHLORFON] | > 20 | > 20
c1ccc(C(Cc2noc(CCN3CCCCC3)n2)c2ccccc2)cc1 [PRENOXDIAZINE] | > 20 | > 20
CCC1(CCC(C)C)C(=O)NC(=O)NC1=O [AMOBARBITAL] | > 20 | > 20
Cc1cc(C)cc([C@@H]2CCCN2Cc2ccc(Oc3ccc(C(N)=O)cc3F)cc2)c1 [ATICAPRANT] | > 20 | > 20
CCC(OC(C)=O)C(CC(C)NC)(c1ccccc1)c1ccccc1 (configuration not stated) [NORACYMETHADOL] | > 20 | > 20
O=C(Nc1ccc(Oc2ccc(Cl)cc2)c(Cl)c1)c1cc(I)cc(I)c1O [RAFOXANIDE] | > 20 | > 20
CN1CCC(=C2c3ccccc3CCc3cccnc32)CC1 [AZATADINE] | > 20 | > 20
CC(C)(C)CC(C)(C)c1cc(Cc2cc(C(C)(C)CC(C)(C)C)cc(-n3nc4ccccc4n3)c2O)c(O)c(-n2nc3ccccc3n2)c1 [BISOCTRIZOLE] | > 20 | > 20
Cc1nnc(SCC2=C(C(=O)O)N3C(=O)C(NC(=O)C(N)c4ccc(O)cc4)C3SC2)s1 (configuration not stated) | > 20 | > 20
CC(C(=O)O)c1ccc(N2Cc3ccccc3C2=O)cc1 (configuration not stated) [INDOPROFEN] | > 20 | > 20
N[C@H](Cn1ccc(=O)c(O)c1)C(=O)O | > 20 | > 20
C=CC(C)NC(=S)NNC(=S)NC (configuration not stated) [METHALLIBURE] | > 20 | > 20
CN1CCN(C2=Nc3cscc3/C(=C/C#N)c3cscc32)CC1 [TENILAPINE] | > 20 | > 20
CCN1CCN(c2cc(-c3ccccc3)c3ccccc3n2)CC1 | > 20 | > 20
CCCCN(CCCC)CCCOC(=O)c1ccc(N)cc1 [BUTACAINE] | > 20 | > 20
O=C1C(O)=C(O)C(=O)C(O)=C1O [TETROQUINONE] | > 20 | > 20
CCOC(=O)Nc1nc2ccccc2[nH]1 [LOBENDAZOLE] | > 20 | > 20

SMILES | IC50 [µM] | IC50 (read-out: pIC50 (converted)) [µM]
CC1COc2c(N3CCN(C)CC3)c(F)cc3c(=O)c(C(=O)O)cn1c23 (configuration not stated) [OFLOXACIN] | > 20 | > 20
CCNC(=O)NCCCOc1cccc(CN2CCCCC2)c1 [DALCOTIDINE] | > 20 | > 20
CN(C)CCCN1c2ccccc2Sc2ccc(Cl)cc21 [CHLORPROMAZINE] | > 20 | > 20
CC(C)Nc1cccnc1N1CCN(C(=O)c2cc3cc(NS(C)(=O)=O)ccc3[nH]2)CC1 [DELAVIRDINE] | > 20 | > 20
CN1C(=O)C(O)N=C(c2ccccc2)c2cc(Cl)ccc21 (configuration not stated) [TEMAZEPAM] | > 20 | > 20
CC1=NN(c2ccccc2)C(=O)C1 [EDARAVONE] | > 20 | > 20
O=c1n(CCCN2CCN(c3cccc(Cl)c3)CC2)nc2ccccn12 [TRAZODONE] | > 20 | > 20
CCOC(=O)[C@H](CCc1ccccc1)N[C@@H](C)C(=O)N1[C@H](C(=O)O)C[C@@H]2CCC[C@@H]21 | > 20 | > 20
COc1ccc(C(=O)CC(=O)O)c2c1C=CC(C)(C)O2 [URSINOIC ACID] | > 20 | > 20
C[C@H](N)C(=O)N[C@H](CCC(N)=O)C(=O)O (H-Ala-[dQ]-OH) | > 20 | > 20
CCc1nc2ccc(Cl)cn2c1C(=O)NCc1ccc(N2CCC(c3ccc(OC(F)(F)F)cc3)CC2)cc1 [TELACEBEC] | > 20 | > 20
O=[N+]([O-])c1ccc(O)c2ncccc12 [NITROXOLINE] | > 20 | > 20
CN(C)C(=O)CCn1nc(Nc2ccc3c(c2)OC(F)(F)O3)nc1-c1ccncc1 [JNJ-39393406] | > 20 | > 20
CC1(C)CC=C(c2nc(C3CC(C)(C)OC(C)(C)C3)ccc2NC(=O)c2nc(C#N)c[nH]2)CC1 [EDICOTINIB] | > 20 | > 20
Cn1ccnc1S [METHIMAZOLE] | > 20 | > 20
CN1C(=O)OC(C)(C)C1=O [TRIMETHADIONE] | > 20 | > 20
CC1=C(CC(=O)O)c2cc(F)ccc2/C1=C\c1ccc([S+](C)[O-])cc1 (configuration not stated) | > 20 | > 20
CCN1CCCC1CNC(=O)c1cc(S(=O)(=O)CC)c(N)cc1OC (configuration not stated) [AMISULPRIDE] | > 20 | > 20
Cc1ccc2c(c1)c1c3n2CCNC3CCC1 (configuration not stated) [PIRLINDOLE] | > 20 | > 20
CC(C)NCC(O)c1ccc(NS(C)(=O)=O)cc1 (configuration not stated) [SOTALOL] | > 20 | > 20
CC(C)(C)c1ccc(OC(=O)[C@H]2CC[C@H](CNC(=N)N)CC2)cc1 [BATEBULAST] | > 20 | > 20
CC(C(=O)O)c1ccc(Oc2nccs2)cc1 (configuration not stated) [ZOLIPROFEN] | > 20 | > 20

SMILES | IC50 [µM] | IC50 (read-out: pIC50 (converted)) [µM]
NC(Cc1ccc(O)cc1)C(=O)O (configuration not stated) | > 20 | > 20
CCCCCCCCCCC[C@@H](C[C@@H]1OC(=O)[C@H]1CCCCCC)OC(=O)[C@H](CC(C)C)NC=O [ORLISTAT] | > 20 | > 20
O=C(NCCCN1CCOCC1)c1ccc(Cl)cc1 [EPROBEMIDE] | > 20 | > 20
O=C(Nc1ccc(Cl)c(Cl)c1)C1=C(O)c2cc(Cl)ccc2S(=O)(=O)CC1 [ENOLICAM] | > 20 | > 20
Nc1c2c(nc3ccccc13)CCCC2 [TACRINE] | > 20 | > 20
CCOC(=O)N1CCC(=O)N(c2ccccc2)c2cc(Cl)ccc21 [ARFENDAZAM] | > 20 | > 20
CN1C[C@H](CO)C=C2c3cccc4[nH]cc(c34)C[C@H]21 | > 20 | > 20
CCOP(=O)(Cc1ccc(C(=O)Nc2ccc(Br)cc2C#N)cc1)OCC [IBROLIPIM] | > 20 | > 20
O=C(Cc1cccc(OC(F)(F)F)c1)Nc1ccc(CCCCc2nnc(NC(=O)Cc3ccccn3)s2)nn1 | > 20 | > 20
O=C(O)[C@@H]1CCCN1 [PROLINE] | > 20 | > 20
CC(=O)N[C@@H](Cc1ccc(O)cc1)C(=O)O [ACETYL TYROSINE] | > 20 | > 20
CCCn1c(=O)c2[nH]cnc2n(-c2ccc(Cl)cc2)c1=O [AROFYLLINE] | > 20 | > 20
COc1ccc(C(=O)Nc2c(Cl)cncc2Cl)cc1OC1CCCC1 | > 20 | > 20
COc1cc([C@@H]2c3cc4c(cc3[C@H](O)[C@H]3COC(=O)[C@H]23)OCO4)cc(OC)c1OC [PODOFILOX] | > 20 | > 20
C=CC(=O)N1C[C@H](Nc2ncnc3[nH]ccc23)CC[C@@H]1C [RITLECITINIB] | > 20 | > 20
O=C(O)/C=C/c1c[nH]cn1 | > 20 | > 20
O=C1CN=C(c2ccccn2)c2cc(Br)ccc2N1 [BROMAZEPAM] | > 20 | > 20
O=C(O)CCC(=O)Nc1ccc(S(=O)(=O)Nc2nccs2)cc1 [SUCCINYLSULFATHIAZOLE] | > 20 | > 20
CC[C@]12C=CCN3CCC4(c5ccc(OC)cc5N(C)[C@H]4[C@](O)(C(=O)OC)[C@@H]1OC(C)=O)C32 (some centres not stated) | > 20 | > 20
CC(C)(O)CNc1nc(Nc2ccnc(C(F)(F)F)c2)nc(-c2cccc(C(F)(F)F)n2)n1 [ENASIDENIB] | > 20 | > 20
O=C(O)CCNC(=O)c1ccccc1 [BETAMIPRON] | > 20 | > 20
O=P(O)(O)OC[C@H](O)CO | > 20 | > 20

— ChEMBL document CHEMBL4651402, “Screening of ~5500 FDA-approved drugs and clinical candidates for anti-SARS-CoV-2 activity” (2021)
